Reference: PubChem BioAssay AID1033 (Sanford-Burnham Center for Chemical Genomics, 2008)
Active and inactive are the calls of the source. No rule for the calls is given here.

Target: Chaperone protein DnaK (Escherichia coli (strain K12)) (UniProt P0A6Y8)
Assay: E. coli DnaK SBD ligand binding – biophysical, NMR, chaperone (AID 1033)
Conditions: Purified DnaK SBD

Chaperone protein DnaK (Escherichia coli (strain K12)), sequence (P0A6Y8 whole entry, looked up): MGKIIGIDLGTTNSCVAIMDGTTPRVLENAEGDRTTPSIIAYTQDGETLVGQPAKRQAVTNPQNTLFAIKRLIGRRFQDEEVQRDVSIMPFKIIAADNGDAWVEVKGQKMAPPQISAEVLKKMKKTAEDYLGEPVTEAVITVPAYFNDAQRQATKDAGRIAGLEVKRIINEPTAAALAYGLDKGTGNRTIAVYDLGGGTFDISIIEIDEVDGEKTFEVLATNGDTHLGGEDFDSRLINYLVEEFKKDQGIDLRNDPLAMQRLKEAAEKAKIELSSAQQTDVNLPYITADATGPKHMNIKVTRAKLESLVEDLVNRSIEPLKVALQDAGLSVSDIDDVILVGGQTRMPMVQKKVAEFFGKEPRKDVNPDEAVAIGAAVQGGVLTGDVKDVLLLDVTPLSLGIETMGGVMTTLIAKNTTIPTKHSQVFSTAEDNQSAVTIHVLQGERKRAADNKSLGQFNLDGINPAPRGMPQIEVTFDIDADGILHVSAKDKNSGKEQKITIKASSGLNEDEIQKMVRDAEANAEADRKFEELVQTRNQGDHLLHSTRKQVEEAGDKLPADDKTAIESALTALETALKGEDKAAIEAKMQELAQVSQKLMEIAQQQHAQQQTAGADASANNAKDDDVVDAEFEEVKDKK

Q: `CC(C)(OC(=O)c1ccccc1)[C@@H]1Cc2cc3ccc(=O)oc3cc2O1` was tested. Which Kd did it give?
A: The Kd was > 4 mM (inactive).

Q: For `O=C(Nc1cnc2ccccn2c1=O)c1ccc(F)cc1`, which Kd is on record?
A: The Kd was > 4 mM (inactive).

Q: Which Kd does the source give for `COc1cccc(NC(=O)c2cccs2)c1` here?
A: Its Kd is > 4 mM (inactive).

Q: Which Kd does the source give for `Cc1nc(-c2cc(C(=O)O)no2)cs1` here?
A: The Kd was > 4 mM (inactive).

Q: `C[C@]12CCC(=O)C=C1CCC1C2C(=O)C[C@@]2(C)C1CC[C@]2(O)C(=O)CO` (some centres undefined) was tested. Which Kd did it give?
A: The Kd was > 4 mM (inactive).

Q: How did the Kd turn out when `C=C(C)C1(O)OC(=O)C=C1OC` (centres undefined) was run?
A: Its Kd is > 4 mM (inactive).

Q: `Cc1cc(NC(=O)CCCn2cnc([N+](=O)[O-])n2)no1` was tested. Which Kd did it give?
A: The Kd was > 4 mM (inactive).

Q: With `CC(=O)O[C@H]1C[C@@]2(C)[C@@H](C[C@@H](O)C3[C@]2(C)CC[C@H]2[C@H](C)[C@H](O)CC[C@]32C)/C1=C(/CCC=C(C)C)C(=O)O` (some centres undefined) as the compound, how does the Kd read?
A: The Kd was > 4 mM (inactive).

Q: For `COC1=C(OC)C(=O)C(C/C=C(\C)CC/C=C(\C)CC/C=C(\C)CC/C=C(/C)CC/C=C(\C)CC/C=C(\C)CC/C=C(\C)CC/C=C(\C)CC/C=C(\C)CCC=C(C)C)=C(C)C1=O`, which Kd is on record?
A: Its Kd is > 4 mM (inactive).

Q: With `O=C(Nc1nccs1)c1cccnc1` as the compound, how does the Kd read?
A: The Kd was > 4 mM (inactive).

Q: For `C=CCCCCCCCCCCCC(O)CC(O)CO` (centres undefined) (tested in a mixture with another compound), which Kd is on record?
A: Its Kd is > 4 mM (inactive).

Q: `CN(C)C(=O)Oc1ccc(-c2nnco2)cc1` was tested. Which Kd did it give?
A: Its Kd is > 4 mM (inactive).

Q: With `CN(C)C(=O)c1ccccc1-c1ccccc1` as the compound, how does the Kd read?
A: Its Kd is > 4 mM (inactive).

Q: How did the Kd turn out when `O=CN1CCN(C(=O)c2ccccc2Cl)CC1` was run?
A: The Kd was > 4 mM (inactive).

Q: How did the Kd turn out when `Nc1cccc(S(N)(=O)=O)c1` was run?
A: The Kd was > 4 mM (inactive).

Q: For `Oc1ccc(C2SCCS2)cc1`, which Kd is on record?
A: Its Kd is > 4 mM (inactive).

Q: `Clc1ccccc1OCCn1ccnc1` was tested. Which Kd did it give?
A: Its Kd is > 4 mM (inactive).

Q: With `O=C(O)CS(=O)(=O)c1ccccc1` as the compound, how does the Kd read?
A: Its Kd is > 4 mM (inactive).

Q: How did the Kd turn out when `CC(=O)c1c(C)n(O)c2ccc3nonc3c12` was run?
A: Its Kd is > 4 mM (inactive).

Q: Which Kd does the source give for `CCc1noc(C)c1C(=O)Nc1ncc(C)s1` here?
A: The Kd was > 4 mM (inactive).

Q: For `CC(=O)c1ccc(N2C(=O)C(C(C)C)NC2=S)cc1` (centres undefined), which Kd is on record?
A: Its Kd is > 4 mM (inactive).

Q: For `O=C(/C=C/c1ccccc1)c1ccc(O)cc1`, which Kd is on record?
A: The Kd was > 4 mM (inactive).

Q: Which Kd does the source give for `COC(=O)C[C@H]1C2(C)CC34OC5(C)O[C@@]6([C@H](OC(C)=O)C(OC(C)=O)[C@]7(C)C(/C(=C(/O)C(C)C)C(=O)O[C@H]7c7ccoc7)[C@@]6(O5)[C@H](OC(C)=O)[C@@]3(O)C2OC(=O)C(C)C)[C@]14C` (some centres undefined) here?
A: Its Kd is > 4 mM (inactive).

Q: `Cc1nnc(N2CCN(c3ccccc3)CC2)[nH]c1=O` was tested. Which Kd did it give?
A: The Kd was > 4 mM (inactive).

Q: For `CN1C(=O)CC(=O)N(C)c2ccccc21`, which Kd is on record?
A: The Kd was > 4 mM (inactive).

Q: Which Kd does the source give for `O=C(/C=C/c1ccccc1)c1ccc(O[C@@H]2O[C@H](CO)[C@@H](O)[C@H](O)[C@H]2O)cc1O` here?
A: The Kd was > 4 mM (inactive).

Q: With `COc1nc(C)ccc1-c1noc(-c2ccncc2)n1` as the compound, how does the Kd read?
A: Its Kd is > 4 mM (inactive).

Q: How did the Kd turn out when `CC1(C(=O)O)CC2C=CC1C2` (centres undefined) was run?
A: Its Kd is > 4 mM (inactive).

Q: For `COc1ccc(C(=O)NC2=NCCS2)cc1OC`, which Kd is on record?
A: Its Kd is > 4 mM (inactive).

Q: For `Nc1c(N2CCCC2)cnn(-c2ccccc2)c1=O`, which Kd is on record?
A: The Kd was > 4 mM (inactive).

Q: With `Cc1ccc(-c2c(C)n([O-])c3c([n+]2=O)CCCC3)o1` as the compound, how does the Kd read?
A: The Kd was > 4 mM (inactive).

Q: `CCC(C)C(=O)O[C@H]1[C@H](O)C2C(CN3CC(C)CCC3[C@@]2(C)O)C2C[C@]34O[C@]5(O)C(OC(=O)C(C)(O)CC)CC[C@@]3(C)C5C(OC(C)=O)[C@@H](OC(C)=O)C4[C@@]21O` (some centres undefined) was tested. Which Kd did it give?
A: The Kd was > 4 mM (inactive).

Q: With `Cc1ccc(C(=O)NC2=NCCS2)o1` as the compound, how does the Kd read?
A: The Kd was > 4 mM (inactive).

Q: With `O=C(Nc1ccccc1)c1cccc(N2C(=O)CCC2=O)c1` as the compound, how does the Kd read?
A: Its Kd is > 4 mM (inactive).

Q: With `CC(C)(C)CC(=O)N1CCC(C(N)=O)CC1` as the compound, how does the Kd read?
A: The Kd was > 4 mM (inactive).

Q: `CC(C)=NNC(=O)C(=O)NC(C)(C)C` was tested. Which Kd did it give?
A: The Kd was > 4 mM (inactive).

Q: `Cc1nnc(SCc2cccs2)[nH]c1=O` was tested. Which Kd did it give?
A: Its Kd is > 4 mM (inactive).

Q: How did the Kd turn out when `C=C1CCC2[C@](C)(CO)[C@H](O)CC[C@@]2(C)[C@@H]1C/C=C1/C(=O)OC[C@H]1O` (some centres undefined) was run?
A: Its Kd is > 4 mM (inactive).

Q: Which Kd does the source give for `CC(C)(C#N)O[C@@H]1O[C@H](CO)[C@@H](O)[C@H](O)[C@H]1O` here?
A: Its Kd is > 4 mM (inactive).

Q: With `O=C(CSc1nc2ccccc2[nH]1)N1CCCCC1` as the compound, how does the Kd read?
A: The Kd was > 4 mM (inactive).

Q: Which Kd does the source give for `Nc1ccc2nccnc2c1` here?
A: The Kd was > 4 mM (inactive).

Q: How did the Kd turn out when `O=[n+]1c(CO)c(CO)n([O-])c2ccccc21` was run?
A: The Kd was > 4 mM (inactive).

Q: With `Nc1cccc(-n2cccc2)c1` as the compound, how does the Kd read?
A: Its Kd is > 4 mM (inactive).

Q: With `O=C(NCC1CCNCC1)c1ccccn1` as the compound, how does the Kd read?
A: Its Kd is > 4 mM (inactive).

Q: With `O=C(O)Cc1n[nH]c(=O)c2ccccc12` as the compound, how does the Kd read?
A: The Kd was > 4 mM (inactive).

Q: `Cc1cc(C)nc(/N=C(/N)N2CCC(C(N)=O)CC2)n1` was tested. Which Kd did it give?
A: The Kd was > 4 mM (inactive).

Q: For `Cc1nnc(-n2cnc3ccccc32)c2ccccc12`, which Kd is on record?
A: The Kd was > 4 mM (inactive).

Q: For `COC(=O)C1CCN(c2ccc(Cl)nn2)CC1`, which Kd is on record?
A: Its Kd is > 4 mM (inactive).

Q: With `O=C(CN1CCOCC1)Nc1nccs1` as the compound, how does the Kd read?
A: Its Kd is > 4 mM (inactive).

Q: With `COc1cc(O)cc(/C=C/c2ccccc2)c1` as the compound, how does the Kd read?
A: The Kd was > 4 mM (inactive).

Q: How did the Kd turn out when `CCOc1ccc(-c2n[nH]c(=S)n2C)cc1` was run?
A: Its Kd is > 4 mM (inactive).

Q: `Nc1ncnc(NC2CCS(=O)(=O)C2)c1[N+](=O)[O-]` (centres undefined) was tested. Which Kd did it give?
A: Its Kd is > 4 mM (inactive).

Q: `Cc1nnc(NCc2cccnc2)[nH]c1=O` was tested. Which Kd did it give?
A: The Kd was > 4 mM (inactive).

Q: For `Cc1cc([N+](=O)[O-])cc[n+]1[O-]`, which Kd is on record?
A: Its Kd is > 4 mM (inactive).

Q: For `CNC(=O)c1cccc(NC(=S)NC)c1`, which Kd is on record?
A: Its Kd is > 4 mM (inactive).

Q: `COc1cc2nc(N3CCNCC3)nc(N)c2cc1OC` was tested. Which Kd did it give?
A: The Kd was > 4 mM (inactive).

Q: With `O=C(O)c1cccc(O)c1O` as the compound, how does the Kd read?
A: The Kd was > 4 mM (inactive).

Q: With `CC1=NCCc2c1[nH]c1cc(O)ccc21` as the compound, how does the Kd read?
A: The Kd was > 4 mM (inactive).

Q: How did the Kd turn out when `Cc1onc(-c2ccccc2)c1C(=O)O` was run?
A: Its Kd is > 4 mM (inactive).

Q: Which Kd does the source give for `O=C(O)C1CSC(c2cccnc2)N1` (centres undefined) here?
A: The Kd was > 4 mM (inactive).

Q: Which Kd does the source give for `O=C(NCCO)c1cc2ccccc2cc1O` here?
A: Its Kd is > 4 mM (inactive).

Q: For `O=C(NC(O)C(=O)c1ccccc1)c1ccco1` (centres undefined), which Kd is on record?
A: Its Kd is > 4 mM (inactive).

Q: `Cc1cc(N)on1` was tested. Which Kd did it give?
A: The Kd was > 4 mM (inactive).

Q: `COc1cc(OC)c2c(c1Cl)OC1(C2=O)C(O)=CC(=O)CC1C` (centres undefined) was tested. Which Kd did it give?
A: The Kd was > 4 mM (inactive).

Q: How did the Kd turn out when `O=C(CC1CCCCC1)N1CCN(c2ccccn2)CC1` was run?
A: Its Kd is > 4 mM (inactive).

Q: With `CC1(C)C(=O)[C@@H]2C[C@@]3(O)C4=CC(=O)O[C@@H](c5ccoc5)[C@]4(C)CCC3C(C)(C2=O)[C@H]1CC(=O)O` (some centres undefined) as the compound, how does the Kd read?
A: Its Kd is > 4 mM (inactive).

Q: How did the Kd turn out when `NN1C(=O)/C(=C/c2ccc(O)c(O)c2)SC1=S` was run?
A: The Kd was > 4 mM (inactive).

Q: `COc1ccc(N=C2NC(=O)CS2)cc1` was tested. Which Kd did it give?
A: Its Kd is > 4 mM (inactive).

Q: How did the Kd turn out when `OC[C@@H]1CCCN2CCCC[C@H]12` was run?
A: Its Kd is > 4 mM (inactive).

Q: Which Kd does the source give for `CC(=O)Oc1cc(-c2coc3cc(OC(C)=O)c(OC(C)=O)c(OC(C)=O)c3c2=O)cc(OC(C)=O)c1OC(C)=O` here?
A: Its Kd is > 4 mM (inactive).

Q: With `COc1c2occc2c(OC)c2c(=O)cc(C)oc12` as the compound, how does the Kd read?
A: The Kd was > 4 mM (inactive).

Q: How did the Kd turn out when `CC(C)NC(=O)Cc1c(O)c2ccccc2[nH]c1=O` was run?
A: Its Kd is > 4 mM (inactive).

Q: With `O=C1CNCc2[nH]c3ccccc3c2N1c1ccccc1` as the compound, how does the Kd read?
A: The Kd was > 4 mM (inactive).

Q: How did the Kd turn out when `CC(=O)OC1CC[C@@]2(C)C(CCC3C2CC[C@]2(C)C(C4=CC(=O)OC4)C(OC(C)=O)CC32O)C1` (some centres undefined) was run?
A: The Kd was > 4 mM (inactive).

Q: Which Kd does the source give for `Nc1cncc(C(=O)O)c1` here?
A: Its Kd is > 4 mM (inactive).

Q: `N/N=C1\CCCc2c1no[n+]2[O-]` was tested. Which Kd did it give?
A: Its Kd is > 4 mM (inactive).

Q: `COC(=O)c1ccc2nsnc2c1` was tested. Which Kd did it give?
A: Its Kd is > 4 mM (inactive).

Q: For `NC(=O)N1CCc2ccccc21`, which Kd is on record?
A: Its Kd is > 4 mM (inactive).

Q: With `CS(=O)(=O)c1ccc(N)cc1` as the compound, how does the Kd read?
A: The Kd was > 4 mM (inactive).
